Measured values published in ChEMBL document CHEMBL1201862, “PubChem BioAssay data set” (2004).
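Interpolation was linear, between the two tested concentrations surrounding the appropriate level; five concentrations were tested over 48 hours in 96-well plates. GI50: concentration for 50% inhibition of growth.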 Calls of active or inactive are those of the source. Rule as the data show it: active = GI50 up to about 1.1 µM and inactive = higher.

Key:
Assay in all cases: inhibition of tumour cell growth, NCI panel, 48 h
[1] = system: SW-620
[2] = system: SK-MEL-5
[3] = system: HOP-92
[4] = system: RXF 393
[5] = system: M14
[6] = system: SNB-19
[7] = system: CCRF-CEM
[8] = system: HT-29
[9] = system: COLO 205
[10] = system: HCC 2998
[11] = system: Malme-3M
[12] = system: MDA-N
[13] = system: NCI/ADR-RES
[14] = system: HOP-62
[15] = system: OVCAR-5
[16] = system: SN12C
[17] = system: Hs-578T
[18] = system: KM12
[19] = system: UO-31

Measured: GI50

O=C(O)c1c(O)c2cc(Br)ccc2oc1=O
inactive: [1] > 100 µM | [2] > 100 µM | [3] 72.1 µM | [4] > 100 µM | [5] > 100 µM | [6] > 100 µM | [7] > 100 µM | [8] > 100 µM | [9] > 100 µM | [10] > 100 µM | [11] > 100 µM | [12] > 100 µM | [13] > 100 µM | [14] > 100 µM | [15] > 100 µM | [16] > 100 µM | [17] > 100 µM

COC(=O)C(=O)C(C(=O)C(=O)Nc1nc2ccc(C)cc2s1)c1nc2ccc([N+](=O)[O-])cc2nc1O (centres undefined)
inactive: [18] > 100 µM | [1] > 100 µM | [2] > 100 µM | [3] 65.2 µM | [4] > 100 µM | [5] > 100 µM | [6] 72.6 µM | [7] > 100 µM | [8] > 100 µM | [10] > 100 µM | [11] > 100 µM | [12] > 100 µM | [13] > 100 µM | [14] > 100 µM | [15] > 100 µM | [16] > 100 µM | [19] 58.5 µM | [17] 93.1 µM

C=C1CC=CC(C)(C)C1C/C=C(\C)C(O)CBr (centres undefined)
inactive: [18] 77.1 µM | [1] 33.1 µM | [2] 62.8 µM | [3] 30.9 µM | [4] 26.7 µM | [5] 82.6 µM | [6] > 100 µM | [7] 47.8 µM | [8] 51.8 µM | [9] 39 µM | [10] 87.9 µM | [12] 42.6 µM | [13] 19.2 µM | [14] > 100 µM | [15] > 100 µM | [16] > 100 µM | [19] 35.7 µM | [17] > 100 µM

COC(=O)C1(O)c2ccccc2N=C2C(=O)c3ccccc3N21 (centres undefined) [METHYLISATOID]
inactive: [18] > 100 µM | [1] > 100 µM | [2] 49.8 µM | [3] > 100 µM | [4] > 100 µM | [7] > 100 µM | [8] > 100 µM | [9] > 100 µM | [10] > 100 µM | [11] 51.8 µM | [12] 15.7 µM | [13] > 100 µM | [14] > 100 µM | [15] > 100 µM | [16] > 100 µM | [19] > 100 µM | [17] > 100 µM

O=C(CCCN1CCC2(CC1)NC(=O)c1ccccc1O2)c1ccc(F)cc1
inactive: [18] > 100 µM | [1] > 100 µM | [2] 44.9 µM | [3] > 100 µM | [4] 64.7 µM | [5] 87.7 µM | [7] 90.4 µM | [8] 43.3 µM | [9] 50.1 µM | [10] > 100 µM | [11] 70.6 µM | [12] > 100 µM | [13] > 100 µM | [14] > 100 µM | [15] 87.1 µM | [16] > 100 µM | [19] 73.5 µM | [17] 96.8 µM

C[C@H](CCC(=O)O)[C@H]1CC[C@H]2[C@@H]3[C@H](O)[C@H](O)[C@@H]4C[C@H](O)CC[C@]4(C)[C@H]3CC[C@]12C [HYOCHOLIC ACID]
inactive: [18] > 100 µM | [1] > 100 µM | [3] > 100 µM | [4] > 100 µM | [5] > 100 µM | [6] > 100 µM | [7] > 100 µM | [8] > 100 µM | [9] > 100 µM | [10] > 100 µM | [11] > 100 µM | [12] > 100 µM | [13] > 100 µM | [14] > 100 µM | [15] > 100 µM | [16] > 100 µM | [19] > 100 µM | [17] > 100 µM

CCCC(=O)OCC1(CO)C/C(=C/CC(C(C)C)C(C)C)C(=O)O1 (centres undefined)
inactive: [18] 44.5 µM | [1] > 100 µM | [2] 54.7 µM | [3] 97.7 µM | [4] > 100 µM | [6] > 100 µM | [7] > 100 µM | [8] > 100 µM | [9] > 100 µM | [10] > 100 µM | [11] 64.4 µM | [12] > 100 µM | [13] > 100 µM | [14] > 100 µM | [15] > 100 µM | [16] > 100 µM | [19] > 100 µM | [17] > 100 µM
